From patent US9079870B2, “Thiol mediated/activated prodrugs of sulfur dioxide (SO2) having anti-bacterial activity” (priority 2012, dated 2015)
Values after ≈ are worked out from the molar mass of the structure shown. Read-outs that look alike come from different tables or passages of the source.

Assays:
[1] = system: Mycobacterium tuberculosis H37Rv strain; assay: Antimycobacterial activity assay (MIC, 7H11 agar); type: cell-based; settings: for inhibition of growth of Mtb at 100 μg mL-1: tested at 100 μg mL-1
[2] = Pararosaniline-based colorimetric assay for sulfur dioxide; type: physicochemical; settings: detected with pararosaniline-based colorimetric assay; 10 equiv cysteine, pH 7.4
[3] = Cysteine-activated sulfur dioxide release, ion chromatography analysis of sulfite; settings: for SO2 yield, 5 min: 5 min after treatment of compound (100 1M) with 10 equiv of cysteine in pH 7.4 phosphate buffer; for % SO2 (30 min): 30 min after commencement of the reaction with thiol, per mole of compound
E. feacalis ATCC 29212 = assay: Antibacterial activity (MIC) against E. feacalis; type: cell-based
Source text: (§1) The antibacterial activity of thiol mediated/activated prodrugs of SO2 i.e. 2,4-dinitrophenylsulfonamide related compounds against the gram positive pathogenic bacteria selected from the group S. aureus, E. feacalis is given herein below Table 2a.

S. aureus ATCC 29213 = assay: Antibacterial activity (MIC) against S. aureus; type: cell-based
Source text: as §1

[4] = Mycobacterium tuberculosis, H37RV, 672 h, Table 3, inhibit 99% of bacterial growth, Mtb H37Rv, read-out: MIC
[5] = Mycobacterium tuberculosis, H37RV, Table 3, Mtb H37Rv
[6] = Mycobacterium tuberculosis, H37RV, Table 3, inhibit 99% of bacterial growth, Mtb H37Rv
[7] = Table 3, 30 min after treatment of compound (100 μM) with 10 equiv of cysteine in pH 7.4 phosphate buffer
[8] = Table 2b, Mtb H37Rv, read-out: MIC
[9] = 30 min after treatment of compound (100 1M) with 10 equiv of cysteine in pH 7.4 phosphate buffer
[10] = Mycobacterium tuberculosis, H37RV, Table 2b, Mtb H37Rv
[11] = Mycobacterium tuberculosis, H37RV, Table 2b, inhibit 99% of bacterial growth, Mtb H37Rv
[12] = Enterococcus faecalis, ATCC29212; read-out: MIC (μg/mL) E. feacalis ATCC 29212
[13] = Staphylococcus aureus, ATCC29213; read-out: MIC (μg/mL) S. aureus ATCC 29213
[14] = Enterococcus faecalis, ATCC29212, read-out: MIC (μg/mL) E. feacalis ATCC 29212
[15] = Staphylococcus aureus, ATCC29213, read-out: MIC (μg/mL) S. aureus ATCC 29213
[16] = Mycobacterium tuberculosis, Table 2b, Mtb H37Rv, read-out: MIC
[17] = Mycobacterium tuberculosis, Table 2b, inhibit 99% of bacterial growth, Mtb H37Rv, read-out: MIC
[18] = Mycobacterium tuberculosis, Table 3, Mtb H37Rv, read-out: MIC

## COC(=O)C1CCCN1S(=O)(=O)c1ccc([N+](=O)[O-])cc1[N+](=O)[O-] (stereo not shown) [Compound 22, Methyl 1[(2,4-dinitrophenyl)sulfonyl]pyrrolidine-2-carboxylate]
[1]; [4]
  MIC: ≤ 25 µg/mL
[1]; [5]
  MIC: 35 µM
[1]; [6]
  MIC: 12.5 µg/mL
[2]
  SO2 source: yes
[3]; [7]
  SO2 yield, 30 min: 83 µM

## O=[N+]([O-])c1ccc(S(=O)(=O)N(CCc2ccccc2)Cc2ccccc2)c([N+](=O)[O-])c1 [Compound 20, N-benzyl, N-(2-phenylethyl) 2,4-dinitrophenylsulfonamide]
[1]
  MIC: 3.13 µg/mL
[1]; [8]
  MIC: 7.09 µM
[3]
  SO2 yield, 5 min: 37 µM
[3]; [9]
  SO2 yield, 30 min: 75 µM

## N#Cc1ccc(NS(=O)(=O)c2ccc([N+](=O)[O-])cc2[N+](=O)[O-])cc1 [Compound 11, N-(4-cyanophenyl) 2,4-dinitrophenylsulfonamide]
[1]; [10]
  MIC: > 100 µM
[1]; [11]
  MIC: > 50 µg/mL
E. feacalis ATCC 29212; [12]
  MIC: > 16 µg/mL
[3]
  SO2 yield, 5 min: 6 µM
[3]; 30 min after commencement of the reaction with cysteine (10 equiv), pH 7.4
  SO2 yield in 30 min (%): 5%
[3]; [9]
  SO2 yield, 30 min: 5 µM
S. aureus ATCC 29213; [13]
  MIC: > 16 µg/mL

## O=[N+]([O-])c1ccc(S(=O)(=O)NCCc2ccccc2)c([N+](=O)[O-])c1 [Compound 14, N-(2-phenylethyl) 2,4-dinitrophenylsulfonamide]
[1]
  MIC: 0.4 µg/mL
[1]; [8]
  MIC: 1.13 µM
[3]
  SO2 yield, 5 min: 76 µM
[3]; [9]
  SO2 yield, 30 min: 100 µM

## CNCc1ccccc1 [BnNHMe, N-methylbenzylamine, reference compound]
[1]; [5]
  MIC: > 250 µM
[1]; [6]
  MIC: > 100 µg/mL
[1]
  inhibition of growth of Mtb at 100 μg mL-1: a similar observation
[2]
  SO2 source: no

## COC(=O)C(C)NS(=O)(=O)c1ccc([N+](=O)[O-])cc1[N+](=O)[O-] (stereo not shown) [Compound 21, Methyl 2-{[(2,4-dinitrophenyl)sulfonyl]amino}propanoate]
[1]; [4]
  MIC: ≤ 25 µg/mL
[1]; [5]
  MIC: 18.7 µM
[1]; [6]
  MIC: 6.25 µg/mL
[2]
  SO2 source: yes
[3]; [7]
  SO2 yield, 30 min: 93 µM

## C[C@@H](NS(=O)(=O)c1ccc([N+](=O)[O-])cc1[N+](=O)[O-])c1ccccc1 [Compound 13, (R) N-(1-phenylethyl)-2,4-dinitrobenzenesulfonamide]
[1]; [10]
  MIC: 4.44 µM
[1]; [11]
  MIC: 1.56 µg/mL
[3]
  SO2 yield, 5 min: 78 µM
[3]; [9]
  SO2 yield, 30 min: 94 µM

## COc1ccccc1N(CCCN(Cc1ccccc1)S(=O)(=O)c1ccc([N+](=O)[O-])cc1[N+](=O)[O-])S(=O)(=O)c1ccc([N+](=O)[O-])cc1[N+](=O)[O-] [Compound 35, N-benzyl-N-(3-(N-(2-methoxyphenyl)-2,4-dinitrophenylsulfonamido)propyl)-2,4-dinitrobenzenesulfonamide]
[3]
  % SO2 (30 min): 161%

## O=[N+]([O-])c1ccc(S(=O)(=O)N(CCCN(Cc2ccccc2)S(=O)(=O)c2ccc([N+](=O)[O-])cc2[N+](=O)[O-])Cc2ccccc2)cc1 [Compound 42, N-benzyl-N-(3-(N-benzyl-4-nitrophenylsulfonamido)propyl)-2,4-dinitrobenzenesulfon-amide]
[3]
  % SO2 (30 min): 98%

## C[C@H](NS(=O)(=O)c1ccc([N+](=O)[O-])cc1[N+](=O)[O-])c1ccccc1 [Compound 12, (S) N-(1-phenylethyl)-2,4-dinitrobenzenesulfonamide]
[1]; [10]
  MIC: 4.44 µM
[1]; [11]
  MIC: 1.56 µg/mL
[3]
  SO2 yield, 5 min: 80 µM
[3]; [9]
  SO2 yield, 30 min: 97 µM

## O=[N+]([O-])c1ccc(S(=O)(=O)NCc2ccc(Cl)cc2)c([N+](=O)[O-])c1 [Compound 3, N-(4-chlorobenzyl)2,4-dinitrophenylsulfonamide]
[1]; [10]
  MIC: 1.07 µM
[1]; [11]
  MIC: 0.4 µg/mL
[3]
  SO2 yield, 5 min: 77 µM
[3]; [9]
  SO2 yield, 30 min: 96 µM

## C=CCN(CC=C)S(=O)(=O)c1ccc([N+](=O)[O-])cc1[N+](=O)[O-] [Compound 32, N,N-diallyl-2,4-dinitrobenzenesulfonamide]
E. feacalis ATCC 29212; [14]
  MIC: > 16 µg/mL
S. aureus ATCC 29213; [15]
  MIC: 8 µg/mL (≈ 24.4 µM)

## O=[N+]([O-])c1ccc(S(=O)(=O)Nc2ccc(F)cc2)c([N+](=O)[O-])c1 [Compound 10, N-(4-fluorophenyl) 2,4-dinitrophenylsulfonamide]
[1]; [10]
  MIC: 18.3 µM
[1]; [11]
  MIC: 6.25 µg/mL
E. feacalis ATCC 29212; [12]
  MIC: > 16 µg/mL
[3]
  SO2 yield, 5 min: 18 µM
[3]; [9]
  SO2 yield, 30 min: 55 µM
S. aureus ATCC 29213; [13]
  MIC: 16 µg/mL (≈ 46.9 µM)

## O=[N+]([O-])c1ccc(S(=O)(=O)N(CCCN(Cc2ccccc2)S(=O)(=O)c2ccccc2[N+](=O)[O-])Cc2ccccc2)c([N+](=O)[O-])c1 [Compound 40, N-benzyl-N-(3-(N-benzyl-2-nitrophenylsulfonamido)propyl)-2,4-dinitrobenzenesulfon-amide]
[3]
  % SO2 (30 min): 88%

## CN1CCN(S(=O)(=O)c2ccc([N+](=O)[O-])cc2[N+](=O)[O-])CC1 [Compound 25, 1-[(2,4-dinitrophenyl)sulfonyl]-4-methylpiperazine]
[1]; [4]
  MIC: ≤ 25 µg/mL
[1]; [5]
  MIC: 38 µM
[1]; [6]
  MIC: 12.5 µg/mL
[2]
  SO2 source: yes
[3]; [7]
  SO2 yield, 30 min: 88 µM

## NC(=O)c1cnccn1 [Pyrizinamide, reference compound]
[1]; [16]
  MIC: 50.8 µM
[1]; [17]
  MIC: 6.25 µg/mL

## NNC(=O)c1ccncc1 [Isoniazide, reference compound]
[1]; [17]
  MIC: 0.05 µg/mL
[1]; [18]
  MIC: 0.37 µM
[1]; [8]
  MIC: 0.37 µM
[1]; Table 3, inhibit 99% of bacterial growth, Mtb H37Rv
  MIC: 0.05 µg/mL
[2]
  SO2 source: no

## CC[C@@H](CO)NCCN[C@@H](CC)CO [Ethambutol, reference compound]
[1]; [16]
  MIC: 7.63 µM
[1]; [17]
  MIC: 1.56 µg/mL

## O=[N+]([O-])c1ccc(S(=O)(=O)NCc2ccccc2C(F)(F)F)c([N+](=O)[O-])c1 [Compound 5, N-(2-trifluoromethylbenzyl) 2,4-dinitrophenylsulfonamide]
[1]
  MIC: 1.56 µg/mL
[1]; [8]
  MIC: 3.84 µM
[3]
  SO2 yield, 5 min: 81 µM
[3]; [9]
  SO2 yield, 30 min: 84 µM

## COc1ccccc1NS(=O)(=O)c1ccc([N+](=O)[O-])cc1[N+](=O)[O-] [Compound 8, N-(2-methoxyphenyl) 2,4-dinitrophenylsulfonamide]
[1]; [10]
  MIC: 8.85 µM
[1]; [11]
  MIC: 3.13 µg/mL
E. feacalis ATCC 29212; [12]
  MIC: 16 µg/mL (≈ 45.3 µM)
[3]
  SO2 yield, 5 min: 57 µM
[3]; [9]
  SO2 yield, 30 min: 86 µM
S. aureus ATCC 29213; [13]
  MIC: 8 µg/mL (≈ 22.6 µM)

## NCc1ccccc1 [BnNH2, Benzylamine, reference compound]
[1]; [18]
  MIC: > 250 µM
[1]; Mycobacterium tuberculosis, Table 3, inhibit 99% of bacterial growth, Mtb H37Rv, read-out: MIC
  MIC: > 100 µg/mL
[1]
  inhibition of growth of Mtb at 100 μg mL-1: did not show a significant inhibition of growth of Mtb
[2]
  SO2 source: no

## O=[N+]([O-])c1cccc(S(=O)(=O)N(CCCN(Cc2ccccc2)S(=O)(=O)c2ccc([N+](=O)[O-])cc2[N+](=O)[O-])Cc2ccccc2)c1 [Compound 41, N-benzyl-N-(3-(N-benzyl-3-nitrophenylsulfonamido)propyl)-2,4-dinitrobenzenesulfon-amide]
[3]
  % SO2 (30 min): 99%

## O=[N+]([O-])c1ccc(S(=O)(=O)N(Cc2ccccc2)c2ccccc2)c([N+](=O)[O-])c1 [Compound 17, (N-benzyl, N-phenyl) 2,4-dinitrophenylsulfonamide]
[1]; [8]
  MIC: 4.44 µM
[1]; Table 2b, inhibit 99% of bacterial growth, Mtb H37Rv
  MIC: 1.56 µg/mL
[3]
  SO2 yield, 5 min: 44 µM
[3]; [9]
  SO2 yield, 30 min: 94 µM

## COc1ccc(CNS(=O)(=O)c2ccc([N+](=O)[O-])cc2[N+](=O)[O-])cc1 [Compound 2, N-(4-methoxybenzyl)2,4-dinitrophenylsulfonamide]
[1]; [10]
  MIC: 0.68 µM
[1]; [11]
  MIC: 0.25 µg/mL
E. feacalis ATCC 29212; [12]
  MIC: > 16 µg/mL
[3]
  SO2 yield, 5 min: 74 µM
[3]; [9]
  SO2 yield, 30 min: 84 µM
S. aureus ATCC 29213; [13]
  MIC: > 16 µg/mL

## O=[N+]([O-])c1ccc(S(=O)(=O)NCc2ccc(C(F)(F)F)cc2)c([N+](=O)[O-])c1 [Compound 4, N-(4-trifluoromethylbenzyl) 2,4-dinitrophenylsulfonamide]
[1]
  MIC: 0.4 µg/mL
[1]; [8]
  MIC: 0.98 µM
[3]
  SO2 yield, 5 min: 79 µM
[3]; [9]
  SO2 yield, 30 min: 75 µM

## C#CCN(Cc1ccccc1)S(=O)(=O)c1ccc([N+](=O)[O-])cc1[N+](=O)[O-] [Compound 33, N-benzyl-2,4-dinitro-N-prop-2-yn-1-ylbenzenesulfonamide]
E. feacalis ATCC 29212; [14]
  MIC: 8 µg/mL (≈ 21.3 µM)
S. aureus ATCC 29213; [15]
  MIC: 4 µg/mL (≈ 10.7 µM)

## O=S([O-])[O-].[Na+].[Na+] [sodium sulfite, reference compound]
[1]
  inhibition of growth of Mtb at 100 μg mL-1: inactive against Mtb

## CN(c1ccccc1)S(=O)(=O)c1ccc([N+](=O)[O-])cc1[N+](=O)[O-] [Compound 18, (N-methyl, N-phenyl) 2,4-dinitrophenylsulfonamide]
[1]
  MIC: 0.78 µg/mL
[1]; [8]
  MIC: 2.31 µM
[3]
  SO2 yield, 5 min: 89 µM
[3]; [9]
  SO2 yield, 30 min: 94 µM

## CN(CCc1ccccc1)S(=O)(=O)c1ccc([N+](=O)[O-])cc1[N+](=O)[O-] [Compound 19, N-methyl, N-(2-phenylethyl) 2,4-dinitrophenylsulfonamide]
[1]
  MIC: 0.78 µg/mL
[1]; [8]
  MIC: 2.13 µM
[3]
  SO2 yield, 5 min: 79 µM
[3]; [9]
  SO2 yield, 30 min: 84 µM
